Values after ≈ are worked out from the molar mass of the structure shown.
Assay: physchem
Conditions: aqueous with cosolvent or surfactant or cyclodextrin

solubility: ~50 µg/mL (≈ 93.1 µM)
SMILES: CC1=C(/C=C/C(C)=C/C=C/C(C)=C/C=C/C=C(C)/C=C/C=C(C)/C=C/C2=C(C)CCCC2(C)C)C(C)(C)CCC1 [β-carotene]
